Results from patent publication US20190031717A1, “MULTI-FUNCTIONAL FUSION POLYPEPTIDE, PREPARATION METHOD THEREOF, AND APPLICATION OF SAME” (NANJING ANJI BIOLOGICAL TECHNOLOGY CO., LTD, priority 2016, published 2019).

Assays:
[1] = tested on: A549 cells induced by TGF-β1 (lung fibrosis model); experiment: Hydroxyproline content in TGF-β1-induced A549 pulmonary fibrosis cell model; assay type: cell-based, human; details: for Hydroxyproline Content Inhibition Rate in the Pulmonary Fibrosis Model: 48 hours
Procedure: Human non-small cell lung cancer cells A549 were cultured in DMEM medium containing 10% (volume fraction) fetal bovine serum, cultured in a carbon dioxide incubator with a volume fraction of 5% at 37° C., and changed once every other day, depending on cell density. A549 cells in logarithmic growth phase were digested with 0.25% trypsin to prepare a cell suspension, adjusted to a cell concentration of 1×10^9 cells/L, and seeded at a density of 4×10^5 cells/cm2 in a cell culture dish of 90 cm^2. The cells were randomly divided into two groups: (1) control group: cultured in DMEM containing 10% (volume fraction) fetal bovine serum; (2) model group: containing 10% (volume fraction) fetal bovine serum, transforming growth factor (TGF-β1, final concentration 5 μg/L) was cultured in DMEM. The cells were cultured at 37° C. in a volumetric 5% carbon dioxide incubator, and changed every other day, depending on the cell density. Cell morphology was observed daily using an inverted microscope to determine when the model was established. When A549 cells are changed from the cobblestone shape of the original epithelial cells to the long spindle shape of the interstitial cells, the modeling is successfully established.
After 48 hours of addition of the polypeptides, the cells of the control group, the model group, and the administration group were collected for subsequent measurement of molecular markers related to pulmonary fibrosis.
Hydroxyproline accounts for 13.4% of collagen, so the content of hydroxyproline can reflect the accumulation of collagen during pulmonary fibrosis, which in turn reflects the degree of pulmonary fibrosis.
Prepare citric acid buffer: 120 g of sodium citrate, 12 mL of glacial acetic acid, 46 g of citric acid, 34 g of sodium hydroxide, dissolved in distilled water, adjust the pH to 6.0, and then dilute to 1000 mL.
Prepare 0.05 mol/L chloramine T solution: weigh 7.05 g of chloramine T, dissolve in 100 mL of distilled water, then add 150 mL of ethylene glycol, and add 250 mL of citric acid buffer to mix well.
Prepare p-dimethylaminobenzaldehyde: Reagent A: Take 20 mL of absolute ethanol, slowly add 2.74 mL of concentrated sulfuric acid; Reagent B: Take 12.0 g of p-dimethylaminobenzaldehyde, slowly add 40 mL of absolute ethanol. Heat in a water bath to completely dissolve and cool to room temperature, then slowly add the A solution to B and mix well.
Prepare a […] perchloric acid solution: take 27 mL of perchloric acid and dilute to 100 mL with distilled water.
The specific steps are as follows: collect the cells in a 1 mL water solution and lyse the cells using a homogenizer; adjust the pH to neutral, dilute to 3 mL, add activated carbon to centrifuge; take 1 mL supernatant, add 1 mL solution 1 (1 mL citrate buffer and 1 mL 0.05 mol/L chloramine T solution), stand for 10 minutes, add 1 mL of perchloric acid, stand for 5 minutes, add 1 mL of p-dimethylaminobenzaldehyde reagent, keep in 60° C. water bath for 15 minutes; centrifuge at 3500 rpm/min for 10 minutes, take the supernatant to measure the absorbance value at a wavelength of 550 nm.
The test was repeated 3 times independently, and the inhibition rate was calculated as follows: inhibition rate (%)=(1−experimental group absorbance/model group absorbance)×100%.

Staphylococcal fluid = experiment: Mouse pneumonia model, bacterial; assay type: in vivo, BALB/C mice; design: concentration or dose not given beside the values; details: mean ± SD
Procedure: (§1) The mouse pneumonia model was successfully established by the nose-drop method. To build the mouse pneumonia model, BALB/C mice with a body mass of 16-22 g were selected and anesthetized pneumonia chain was prepared after anesthesia with ether on day 0, day 1, and day 2. Staphylococcal fluid, adenovirus concentrate, Mycoplasma pneumoniae, Chlamydia pneumoniae, protozoa, and pneumonia fungi were slowly dripped into the nasal cavity of the mice, so that they enter the tracheobronchial. During the operation process, care was exercised to prevent bacterial fluid from flowing into the esophagus, which leads to inactivation the bacterial fluid. After successful model establishment, the polypeptides of the present invention were administered, and the results were shown in Table 5. […] The results were expressed in average value±standard deviation.

Chlamydia pneumoniae = experiment: Mouse pneumonia model, chlamydia; assay type: in vivo, BALB/C mice; design: concentration or dose not given beside the values; details: mean ± SD
Procedure: as §1

protozoa = experiment: Mouse pneumonia model, protozoal; assay type: in vivo, BALB/C mice; design: concentration or dose not given beside the values; details: mean ± SD
Procedure: as §1

Adenocarcinoma = experiment: MTT assay, lung cancer tumor cells; assay type: cell-based, human; design: concentration or dose not given beside the values; details: 48 h, mean ± SD
Procedure: (§2) The inhibition of the growth of human lung cancer tumor cells by the polypeptide of the present invention was examined by MTT assay. The lung cancer tumor cells were cultured in a 37° C., 5% (volume fraction) CO2 incubator to a density of 90% or more, and collected by trypsinization. The cells were resuspended in the culture medium and counted under a microscope to adjust the cell concentration to 2.0×10^4 cells/mL, the cell suspension was inoculated into a 96-well plate at 100 μL per well, and cultured overnight at 37° C. in a 5% (volume fraction) CO2 incubator. After the cells were completely adhered, the polypeptide of the present invention was added as a drug-administered group, and a culture solution containing no drug was used as a blank control group, and the culture solution was diluted to each predetermined concentration. Each dilution was separately added to a 96-well plate at 100 μL per well and incubated for 48 h at 37° C. in a 5% (volume fraction) CO2 incubator. 20 μL of 5 mg/mL MTT was added to each well of a 96-well plate, and incubation was continued for 4 hours. The medium was aspirated, and the cells were dissolved in 100 μL of DMSO per well. The absorbance was measured by a microplate reader at a detection wavelength of 570 nm and a reference wavelength of 630 nm, and the growth inhibition rate was calculated as follows: tumor growth inhibition rate (%)=(1−administered group absorbance value/unadministered group absorbance value)×100%, and the experiment was repeated 3 times independently. The results obtained by the test were expressed as mean±standard deviation. The results in Table 6 indicate that the polypeptides of the present invention have a good inhibitory effect on proliferation of a variety of human lung cancer tumors (FIG. 5).

Adenosquamous carcinoma = experiment: MTT assay, lung cancer tumor cells; assay type: cell-based, human; design: concentration or dose not given beside the values; details: 48 h, mean ± SD
Procedure: as §2

Large cell lung cancer = experiment: MTT assay, lung cancer tumor cells; assay type: cell-based, human; design: concentration or dose not given beside the values; details: 48 h, mean ± SD
Procedure: as §2

[2] = tested on: Non-small cell lung cancer; experiment: MTT assay, lung cancer tumor cells; assay type: cell-based, human; design: concentration or dose not given beside the values; details: 48 h, mean ± SD
Procedure: as §2

Small Cell Lung Cancer = experiment: MTT assay, lung cancer tumor cells; assay type: cell-based, human; design: concentration or dose not given beside the values; details: 48 h, mean ± SD
Procedure: as §2

Squamous cell carcinoma = experiment: MTT assay, lung cancer tumor cells; assay type: cell-based, human; design: concentration or dose not given beside the values; details: 48 h, mean ± SD
Procedure: as §2

Arg-Gly-Asp-Gly-Gly-Gly-Gly-Ile-Val-Arg-Arg-Ala-Asp-Arg-Ala-Ala-Val-Pro-Gly-Gly-Gly-Gly-Pro-(D-Pyr)-(D-Cys)-Bip-Arg-Gly-Glu [Polypeptide IV]
effect on content of hydroxyproline in lung fibrosis model cells (FIG. 1-3), in words [1]: can inhibit the content of hydroxyproline in lung fibrosis model cells
Hydroxyproline Content Inhibition Rate in the Pulmonary Fibrosis Model ([1]; 4 uM): 33.09%
Hydroxyproline Content Inhibition Rate in the Pulmonary Fibrosis Model ([1]; 8 uM): 47.28%
Inhibitory Effects on Various Pulmonary Infections (Staphylococcal fluid): 44.75 ± 13.08%
Inhibitory Effects on Various Pulmonary Infections (Chlamydia pneumoniae): 47.43 ± 17.72%
Inhibitory Effects on Various Pulmonary Infections (protozoa): 62.44 ± 24.16%
tumor growth inhibition rate, MTT Assay (Adenocarcinoma): 88.65 ± 17.86%
tumor growth inhibition rate, MTT Assay (Adenosquamous carcinoma): 60.53 ± 16.36%
tumor growth inhibition rate, MTT Assay (Large cell lung cancer): 88.92 ± 19.05%
tumor growth inhibition rate, MTT Assay [2]: 93.66 ± 23.44%
tumor growth inhibition rate, MTT Assay (Small Cell Lung Cancer): 71.14 ± 17.19%
tumor growth inhibition rate, MTT Assay (Squamous cell carcinoma): 67.13 ± 12.69%

Arg-Gly-Asp-Gly-Gly-Gly-Gly-Pro-(D-Pyr)-(D-Cys)-Bip-Arg-Gly-Glu-Gly-Gly-Gly-Gly-Ile-Val-Arg-Arg-Ala-Asp-Arg-Ala-Ala-Val-Pro [Polypeptide III]
effect on content of hydroxyproline in lung fibrosis model cells (FIG. 1-3), in words [1]: can inhibit the content of hydroxyproline in lung fibrosis model cells
Hydroxyproline Content Inhibition Rate in the Pulmonary Fibrosis Model ([1]; 4 uM): 30.66%
Hydroxyproline Content Inhibition Rate in the Pulmonary Fibrosis Model ([1]; 8 uM): 56.21%
Inhibitory Effects on Various Pulmonary Infections (Staphylococcal fluid): 47.07 ± 13.26%
Inhibitory Effects on Various Pulmonary Infections (Chlamydia pneumoniae): 49.88 ± 14.05%
Inhibitory Effects on Various Pulmonary Infections (protozoa): 65.68 ± 18.50%
tumor growth inhibition rate, MTT Assay (Adenocarcinoma): 93.25 ± 16.99%
tumor growth inhibition rate, MTT Assay (Adenosquamous carcinoma): 63.67 ± 11.60%
tumor growth inhibition rate, MTT Assay (Large cell lung cancer): 93.53 ± 17.04%
tumor growth inhibition rate, MTT Assay [2]: 91.58 ± 17.95%
tumor growth inhibition rate, MTT Assay (Small Cell Lung Cancer): 74.83 ± 13.63%
tumor growth inhibition rate, MTT Assay (Squamous cell carcinoma): 70.61 ± 12.86%

Ile-Val-Arg-Arg-Ala-Asp-Arg-Ala-Ala-Val-Pro-Gly-Gly-Gly-Gly-Arg-Gly-Asp-Gly-Gly-Gly-Gly-Pro-(D-Pyr)-(D-Cys)-Bip-Arg-Gly-Glu [Polypeptide V]
effect on content of hydroxyproline in lung fibrosis model cells (FIG. 1-3), in words [1]: can inhibit the content of hydroxyproline in lung fibrosis model cells
Hydroxyproline Content Inhibition Rate in the Pulmonary Fibrosis Model ([1]; 4 uM): 34.47%
Hydroxyproline Content Inhibition Rate in the Pulmonary Fibrosis Model ([1]; 8 uM): 49.25%
Inhibitory Effects on Various Pulmonary Infections (Staphylococcal fluid): 38.12 ± 11.17%
Inhibitory Effects on Various Pulmonary Infections (Chlamydia pneumoniae): 40.40 ± 15.13%
Inhibitory Effects on Various Pulmonary Infections (protozoa): 53.19 ± 20.63%
tumor growth inhibition rate, MTT Assay (Adenocarcinoma): 75.52 ± 15.25%
tumor growth inhibition rate, MTT Assay (Adenosquamous carcinoma): 51.56 ± 13.97%
tumor growth inhibition rate, MTT Assay (Large cell lung cancer): 75.74 ± 16.27%
tumor growth inhibition rate, MTT Assay [2]: 79.78 ± 20.01%
tumor growth inhibition rate, MTT Assay (Small Cell Lung Cancer): 60.60 ± 14.68%
tumor growth inhibition rate, MTT Assay (Squamous cell carcinoma): 57.18 ± 10.83%
